# From ChEMBL document CHEMBL1132089, “Probing the role of interfacial residues in a dimerization inhibitor of HIV-1 protease” (Bioorg Med Chem Lett, 1999)
# Where a SMILES comes first, the peptide text is derived from it. Bridges are numbered along the chain shown (N, C = ends). Roman numbers before positions name the chains, in order. The star is where a group is joined. C16 diacid = O=C(O)CCCCCCCCCCCCCCC(=O)*
# Target: Human immunodeficiency virus type 1 protease (Human immunodeficiency virus 1) (UniProt Q72874)
# Experiment: Percent inhibition of HIV-1 protease at a concentration level of 25 nM relative to compound I was determined by UV absorbance
row,SMILES,inhibition [%]
1,CC[C@H](C)[C@H](NC(=O)[C@H](CCC(N)=O)NC(=O)[C@@H]1CCCN1C(=O)CCCCCCCCCCCCCCC(=O)N[C@@H](CO)C(=O)N[C@H](C(=O)N[C@@H](CC(C)C)C(=O)N[C@@H](C)C(=O)N[C@@H](Cc1ccccc1)C(=O)O)[C@H](C)O)C(=O)N[C@H](C(=O)N[C@@H](CC(C)C)C(=O)N[C@@H](Cc1c[nH]c2ccccc12)C(=O)O)[C@@H](C)O,1.9
2,CC[C@H](C)[C@H](NC(=O)[C@H](CCC(N)=O)NC(=O)[C@@H]1CCCN1C(=O)CCCCCCCCCCCCCCC(=O)N[C@@H](CO)C(=O)N[C@H](C(=O)N[C@@H](CC(C)C)C(=O)N[C@@H](CC(N)=O)C(=O)N[C@@H](Cc1ccccc1)C(=O)O)[C@@H](C)O)C(=O)N[C@@H](C)C(=O)N[C@@H](CC(C)C)C(=O)N[C@@H](Cc1c[nH]c2ccccc12)C(=O)O (I: PQIALW-OH / II: STLNF-OH; linker I:N-II:N via C16 diacid),3.3
3,CC[C@H](C)[C@H](NC(=O)[C@H](CCC(N)=O)NC(=O)[C@@H]1CCCN1C(=O)CCCCCCCCCCCCCCC(=O)N[C@@H](CO)C(=O)N[C@@H](C)C(=O)N[C@@H](CC(C)C)C(=O)N[C@@H](CC(N)=O)C(=O)N[C@@H](Cc1ccccc1)C(=O)O)C(=O)N[C@H](C(=O)N[C@@H](CC(C)C)C(=O)N[C@@H](Cc1c[nH]c2ccccc12)C(=O)O)[C@@H](C)O (I: PQITLW-OH / II: SALNF-OH; linker I:N-II:N via C16 diacid),3.3
4,CC[C@H](C)[C@H](NC(=O)[C@H](CCC(N)=O)NC(=O)[C@@H]1CCCN1C(=O)CCCCCCCCCCCCCCC(=O)N[C@@H](CO)C(=O)N[C@H](C(=O)N[C@@H](CC(C)C)C(=O)N[C@@H](CC(N)=O)C(=O)N[C@@H](Cc1ccccc1)C(=O)O)[C@H](C)O)C(=O)N[C@H](C(=O)N[C@@H](C)C(=O)N[C@@H](Cc1c[nH]c2ccccc12)C(=O)O)[C@@H](C)O,1.6
5,CC[C@H](C)[C@H](NC(=O)[C@H](CCC(N)=O)NC(=O)[C@@H]1CCCN1C(=O)CCCCCCCCCCCCCCC(=O)N[C@@H](C)C(=O)N[C@H](C(=O)N[C@@H](CC(C)C)C(=O)N[C@@H](CC(N)=O)C(=O)N[C@@H](Cc1ccccc1)C(=O)O)[C@H](C)O)C(=O)N[C@H](C(=O)N[C@@H](CC(C)C)C(=O)N[C@@H](Cc1c[nH]c2ccccc12)C(=O)O)[C@@H](C)O,1.1
6,CC(C)C[C@H](NC(=O)[C@@H](NC(=O)[C@H](CO)NC(=O)CCCCCCCCCCCCCCC(=O)N1CCC[C@H]1C(=O)N[C@@H](CCC(N)=O)C(=O)N[C@@H](C)C(=O)N[C@H](C(=O)N[C@@H](CC(C)C)C(=O)N[C@@H](Cc1c[nH]c2ccccc12)C(=O)O)[C@@H](C)O)[C@H](C)O)C(=O)N[C@@H](CC(N)=O)C(=O)N[C@@H](Cc1ccccc1)C(=O)O,2.7
7,CC[C@H](C)[C@H](NC(=O)[C@H](C)NC(=O)[C@@H]1CCCN1C(=O)CCCCCCCCCCCCCCC(=O)N[C@@H](CO)C(=O)N[C@H](C(=O)N[C@@H](CC(C)C)C(=O)N[C@@H](CC(N)=O)C(=O)N[C@@H](Cc1ccccc1)C(=O)O)[C@@H](C)O)C(=O)N[C@H](C(=O)N[C@@H](CC(C)C)C(=O)N[C@@H](Cc1c[nH]c2ccccc12)C(=O)O)[C@@H](C)O (I: PAITLW-OH / II: STLNF-OH; linker I:N-II:N via C16 diacid),0.8
8,CC[C@H](C)[C@H](NC(=O)[C@H](CCC(N)=O)NC(=O)[C@@H]1CCCN1C(=O)CCCCCCCCCCCCCCC(=O)N[C@@H](CO)C(=O)N[C@H](C(=O)N[C@@H](CC(C)C)C(=O)N[C@@H](CC(N)=O)C(=O)N[C@@H](C)C(=O)O)[C@H](C)O)C(=O)N[C@H](C(=O)N[C@@H](CC(C)C)C(=O)N[C@@H](Cc1c[nH]c2ccccc12)C(=O)O)[C@@H](C)O,3.5
9,CC[C@H](C)[C@H](NC(=O)[C@H](CCC(N)=O)NC(=O)[C@@H]1CCCN1C(=O)CCCCCCCCCCCCCCC(=O)N[C@@H](CO)C(=O)N[C@H](C(=O)N[C@@H](CC(C)C)C(=O)N[C@@H](CC(N)=O)C(=O)N[C@@H](Cc1ccccc1)C(=O)O)[C@@H](C)O)C(=O)N[C@H](C(=O)N[C@@H](CC(C)C)C(=O)N[C@@H](C)C(=O)O)[C@@H](C)O (I: PQITLA-OH / II: STLNF-OH; linker I:N-II:N via C16 diacid),26
10,CC[C@H](C)[C@H](NC(=O)[C@H](CCC(N)=O)NC(=O)[C@@H]1CCCN1C(=O)CCCCCCCCCCCCCCC(=O)N[C@@H](CO)C(=O)N[C@H](C(=O)N[C@@H](C)C(=O)N[C@@H](CC(N)=O)C(=O)N[C@@H](Cc1ccccc1)C(=O)O)[C@H](C)O)C(=O)N[C@H](C(=O)N[C@@H](CC(C)C)C(=O)N[C@@H](Cc1c[nH]c2ccccc12)C(=O)O)[C@@H](C)O,4.5
